In patent publication US20260297109A1, “COMPOUNDS AS SUMO ACTIVATING ENZYME INHIBITORS” (WIGEN BIOMEDICINE TECHNOLOGY (SHANGHAI) CO., LTD., priority 2022, published 2026) one finds IC50 data, which are given here for 37 compounds.

pIC50: −log10 of the molar value.

For one assay, the target named is T1, SAE (Homo sapiens, UniProt Q9UBT2).
T1 construct: endogenous in cells; host or cells: HCT116
T1 sequence (Q9UBT2 1-640): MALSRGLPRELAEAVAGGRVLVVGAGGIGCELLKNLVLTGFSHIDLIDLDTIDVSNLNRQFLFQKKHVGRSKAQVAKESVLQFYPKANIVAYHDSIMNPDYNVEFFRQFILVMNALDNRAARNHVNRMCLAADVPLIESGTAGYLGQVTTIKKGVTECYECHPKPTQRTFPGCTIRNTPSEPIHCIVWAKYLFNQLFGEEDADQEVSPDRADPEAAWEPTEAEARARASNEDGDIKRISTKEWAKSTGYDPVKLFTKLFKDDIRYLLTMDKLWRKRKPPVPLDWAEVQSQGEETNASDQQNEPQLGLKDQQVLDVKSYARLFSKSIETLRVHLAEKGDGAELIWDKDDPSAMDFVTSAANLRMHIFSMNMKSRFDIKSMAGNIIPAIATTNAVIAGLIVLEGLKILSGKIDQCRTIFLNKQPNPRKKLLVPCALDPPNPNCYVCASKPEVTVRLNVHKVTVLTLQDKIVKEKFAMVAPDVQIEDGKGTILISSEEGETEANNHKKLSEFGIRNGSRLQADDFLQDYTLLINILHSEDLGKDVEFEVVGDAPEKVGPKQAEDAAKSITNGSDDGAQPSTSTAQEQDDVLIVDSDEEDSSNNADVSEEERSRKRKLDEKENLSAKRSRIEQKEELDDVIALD
T1 sequence (Q9UBE0 1-346): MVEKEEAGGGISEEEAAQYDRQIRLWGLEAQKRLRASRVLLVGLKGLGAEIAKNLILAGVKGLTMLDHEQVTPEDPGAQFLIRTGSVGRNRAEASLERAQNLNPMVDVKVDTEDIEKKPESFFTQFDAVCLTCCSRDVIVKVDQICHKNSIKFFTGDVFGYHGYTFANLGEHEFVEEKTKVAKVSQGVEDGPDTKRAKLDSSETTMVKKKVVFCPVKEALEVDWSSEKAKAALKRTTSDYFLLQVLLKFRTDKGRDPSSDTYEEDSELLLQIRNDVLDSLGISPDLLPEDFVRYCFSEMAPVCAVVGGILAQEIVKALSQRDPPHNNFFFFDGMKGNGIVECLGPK
The experiment in a line: SUMO IF: in vitro inhibitory activity assay against SAE in HCT116 cells (SUMO-2/3 immunofluorescence). The settings on record: class symbols, 6 h at 37° C. In kind it is cell-based. Here is the method:
Biological Example 1. In Vitro Inhibitory Activity Assay of Compounds of the Present Disclosure Against SAE
HCT116 cells were seeded into a 96-well black transparent bottom plate at about 20000/well with 90 μL per well. The cells were incubated at 37° C. overnight for 24 h. The test compounds were 10-fold diluted to give a final concentration, and 10 μL of the diluted compounds was added to each well of the cell culture plate. The mixture was incubated at 37° C. for 6 h. The cells were then washed gently, the culture medium was discarded, and the cells were washed once with 200 μL of 0.1% PBST. 50 μL of 4% PFA was added to each well, and the cells were immobilized at room temperature for 20 min, and then washed with PBS 2-3 times. 50 μL of 0.2% Triton X-100 was added to each well, and the cells were left to stand at room temperature for 15 min and washed with 0.1% PBST 3 times. 100 μL of 3% BSA (0.6 g BSA+20 mL PBS) was added to each well, and the mixture was blocked at 37° C. for 30 min. After the blocking was completed, the liquid was removed and a primary antibody (SUMO-2/3 (18H8) Rabbit mAb, 1:400 dilution) was prepared with 1% BSA. 30 μL of the diluted primary antibody was added to each well, and the mixture was incubated at 4° C. overnight. The cells were washed 3 times with 200 μL of 0.1% PBST. A FITC secondary antibody (Fluorescein (FITC)-conjugated Affinipure Goat Anti-Rabbit IgG (H+L), 1:300 dilution) was further prepared with 1% BSA, and 40 μL of the diluted secondary antibody was added to each well. The mixture was incubated at room temperature in the dark for 2 h, and then the cells were washed 4 times with 0.1% PBST. The fluorescence signal of the sample was detected and compared to the DMSO group, and the inhibition rate and IC50 were calculated.
One may read the pIC50 as −log10 of the IC50, conventionally taken in molar units. For `CC1(C)CNC2(CCCc3sc(C(=O)c4cncnc4N[C@H]4C[C@H](O)[C@@H](COS(N)(=O)=O)[C@@H]4F)cc32)c2cc(Cl)ccc21` (stereo partly shown) [Compound 1026], the pIC50 was 6.70 to 7.30.

For the compound `NS(=O)(=O)OC[C@H]1[C@H](F)[C@@H](Nc2ncncc2C(=O)c2cc3c(s2)OC[C@@]32NCCc3ccccc32)C[C@@H]1O` [Compound 140], the pIC50 is less than 6.70.

`NS(=O)(=O)OC[C@H]1[C@H](F)[C@@H](Nc2ncncc2C(=O)c2cc3c(s2)CCCC32NCCc3cc(F)c(Cl)cc32)C[C@@H]1O` (stereo partly shown) [Compound 111] gave a pIC50 not below 7.30.

The compound `Cc1sc(C(=O)c2cncnc2N[C@H]2C[C@H](O)[C@@H](COS(N)(=O)=O)[C@@H]2F)cc1C1NCCc2ccc(C(F)(F)F)cc21` (stereo partly shown) [Compound 244] had a pIC50 of 6.70 to 7.30.

`COc1ccc2c(c1)[C@@]1(CCc3sc(C(=O)c4cncnc4N[C@H]4C[C@H](O)[C@@H](COS(N)(=O)=O)[C@@H]4F)cc31)NCC2` [Compound 689] gave a pIC50 of 6.70 to 7.30.

The compound `NS(=O)(=O)OC[C@H]1[C@H](F)[C@@H](Nc2ncncc2C(=O)c2cc3c(s2)CCCC32NCCc3ccc(Cl)cc32)C[C@@H]1O` (stereo partly shown) [Compound 88] had a pIC50 not below 7.30.

Compound `NS(=O)(=O)OC[C@H]1[C@H](F)[C@@H](Nc2ncncc2C(=O)c2cc3c(s2)CCC[C@@]32NCC3(CC3)c3ccc(Cl)cc32)C[C@@H]1O` [Compound 616] had a pIC50 of less than 6.70.

The compound `Cc1sc(C(=O)c2cncnc2N[C@H]2C[C@H](O)[C@@H](COS(N)(=O)=O)[C@@H]2F)cc1C1NCCc2cnc(Cl)cc21` (stereo partly shown) [Compound 255] gave a pIC50 of 6.70 to 7.30.

As for `NS(=O)(=O)OC[C@H]1[C@H](F)[C@@H](Nc2ncncc2C(=O)c2cc3c(s2)C(F)=CC32NCCc3ccc(F)cc32)C[C@@H]1O` (stereo partly shown) [Compound 618], the pIC50 was 6.70 to 7.30.

The compound `NS(=O)(=O)OC[C@H]1[C@H](F)[C@@H](Nc2ncncc2C(=O)c2cc3c(s2)C(F)=C[C@]32NCCc3ccc(Cl)cc32)C[C@@H]1O` [Compound 323] showed a pIC50 not below 7.30.

With `NS(=O)(=O)OC[C@H]1[C@H](F)[C@@H](Nc2ncncc2C(=O)c2cc3c(s2)CCCC32NCCc3cc(F)c(F)cc32)C[C@@H]1O` (stereo partly shown) [Compound 110], the pIC50 was 6.70 to 7.30.

On to `NS(=O)(=O)OC[C@H]1[C@H](F)[C@@H](Nc2ncncc2C(=O)c2nc3c(s2)COCC32NCCc3ccc(Cl)cc32)C[C@@H]1O` (stereo partly shown) [Compound 588], for which the pIC50 is less than 6.70.

Compound `CCN1Cc2sc(C(=O)c3cncnc3N[C@H]3C[C@H](O)[C@@H](COS(N)(=O)=O)[C@@H]3F)cc2[C@]2(C1)OCCc1ccc(F)cc12` [Compound 728] had a pIC50 not below 7.30.

`CN1Cc2sc(C(=O)c3cncnc3N[C@H]3C[C@H](O)[C@@H](COS(N)(=O)=O)[C@@H]3F)cc2C2(C1)OCCc1ccc(F)cc12` (stereo partly shown) [Compound 720] showed a pIC50 of 6.70 to 7.30.

`CC1(C)Cc2ccc(Cl)cc2C2(CCCc3sc(C(=O)c4cncnc4N[C@H]4C[C@H](O)[C@@H](COS(N)(=O)=O)[C@@H]4F)cc32)N1` (stereo partly shown) [Compound 1029] showed a pIC50 of 6.70 to 7.30.

With `NS(=O)(=O)OC[C@H]1[C@H](F)[C@@H](Nc2ncncc2C(=O)c2cc3c(s2)CCC32NCC3(CC3)c3ccc(Cl)cc32)C[C@@H]1O` (stereo partly shown) [Compound 165], the pIC50 is 6.70 to 7.30.

For the compound `NS(=O)(=O)OC[C@H]1[C@H](F)[C@@H](Nc2ncncc2C(=O)c2cc3c(s2)CC=C[C@]32NCCc3ccc(Cl)cc32)C[C@@H]1O` [Compound 681], the pIC50 is not below 7.30.

`N#Cc1ccc2c(c1)[C@]1(C=Cc3sc(C(=O)c4cncnc4N[C@H]4C[C@H](O)[C@@H](COS(N)(=O)=O)[C@@H]4F)cc31)OCC2` [Compound 763] showed a pIC50 of less than 6.70.

Take `CN1Cc2sc(C(=O)c3cncnc3N[C@H]3C[C@H](O)[C@@H](COS(N)(=O)=O)[C@@H]3F)cc2C2(C1)NCCc1ccc(Cl)cc12` (stereo partly shown) [Compound 576]: the pIC50 is not below 7.30.

`CC1Cc2ccc(Cl)cc2C2(C=Cc3sc(C(=O)c4cncnc4N[C@H]4C[C@H](O)[C@@H](COS(N)(=O)=O)[C@@H]4F)cc32)N1` (stereo partly shown) [Compound 1056] gave a pIC50 of 6.70 to 7.30.

Turning to `NS(=O)(=O)OC[C@H]1[C@H](F)[C@@H](Nc2ncncc2C(=O)c2cc3c(s2)CCC32NCCc3ccc(C4CC4)cc32)C[C@@H]1O` (stereo partly shown) [Compound 149], the pIC50 was 6.70 to 7.30.

`NS(=O)(=O)OC[C@H]1[C@H](F)[C@@H](Nc2ncncc2C(=O)c2cc3c(s2)CSC[C@]32NCCc3ncc(Cl)cc32)C[C@@H]1O` [Compound 614] had a pIC50 not below 7.30.

In turn, `NS(=O)(=O)OC[C@H]1[C@H](F)[C@@H](Nc2ncncc2C(=O)c2cc3c(s2)CC[C@]32NCCc3cc(F)c(F)cc32)C[C@@H]1O` [Compound 691] gave a pIC50 not below 7.30.

Take `NS(=O)(=O)OC[C@H]1[C@H](F)[C@@H](Nc2ncncc2C(=O)c2cc3c(s2)CSCC32NCCc3cnc(Cl)cc32)C[C@@H]1O` (stereo partly shown) [Compound 606]: the pIC50 was 6.70 to 7.30.

Regarding `NS(=O)(=O)OC[C@H]1[C@H](F)[C@@H](Nc2ncncc2C(=O)c2cc3c(s2)C=C[C@]32NCCc3ccc(F)cc32)C[C@@H]1O` [Compound 346], the pIC50 is not below 7.30.

Turning to `NS(=O)(=O)OC[C@H]1[C@H](F)[C@@H](Nc2ncncc2C(=O)c2cc3c(s2)CCC[C@]32OCCc3ccccc32)C[C@@H]1O` [Compound 710], the pIC50 is 6.70 to 7.30.

The compound `N#Cc1cc2c(cc1Cl)[C@@]1(CCCc3sc(C(=O)c4cncnc4N[C@H]4C[C@H](O)[C@@H](COS(N)(=O)=O)[C@@H]4F)cc31)NCC2` [Compound 674] gave a pIC50 not below 7.30.

As for `CCN1Cc2sc(C(=O)c3cncnc3N[C@H]3C[C@H](O)[C@@H](COS(N)(=O)=O)[C@@H]3F)cc2[C@]2(C1)OCCc1ccc(Cl)cc12` [Compound 731], the pIC50 is not below 7.30.

The compound `NS(=O)(=O)OC[C@H]1[C@H](F)[C@@H](Nc2ncncc2C(=O)c2cc3c(s2)C=CC32OCCc3ccccc32)C[C@@H]1O` (stereo partly shown) [Compound 753] had a pIC50 of 6.70 to 7.30.

In turn, `CC1Cc2ccc(Cl)cc2[C@@]2(CCCc3sc(C(=O)c4cncnc4N[C@H]4C[C@H](O)[C@@H](COS(N)(=O)=O)[C@@H]4F)cc32)N1` (stereo partly shown) [Compound 1025] showed a pIC50 of 6.70 to 7.30.

For the compound `NS(=O)(=O)OC[C@H]1[C@H](F)[C@@H](Nc2ncncc2C(=O)c2cc3c(s2)CCC32NCCc3ccc(F)cc32)C[C@@H]1O` (stereo partly shown) [Compound 133], the pIC50 is 6.70 to 7.30.

In turn, `NS(=O)(=O)OC[C@H]1[C@H](F)[C@@H](Nc2ncncc2C(=O)c2cc3c(s2)CC[C@]32NCCc3cc(F)c(Cl)c(F)c32)C[C@@H]1O` [Compound 697] had a pIC50 not below 7.30.

Turning to `COc1cc2c(cc1Cl)C(c1cc(C(=O)c3cncnc3N[C@H]3C[C@H](O)[C@@H](COS(N)(=O)=O)[C@@H]3F)sc1C)NCC2` (stereo partly shown) [Compound 250], the pIC50 was 6.70 to 7.30.

The compound `NS(=O)(=O)OC[C@H]1[C@H](F)[C@@H](Nc2ncncc2C(=O)c2cc3c(s2)COCC32NCCc3ccc(F)cc32)C[C@@H]1O` (stereo partly shown) [Compound 100] gave a pIC50 of 6.70 to 7.30.

For the compound `CN1CCc2ccc(Cl)cc2C12CCCc1sc(C(=O)c3cncnc3N[C@H]3C[C@H](O)[C@@H](COS(N)(=O)=O)[C@@H]3F)cc12` (stereo partly shown) [Compound 594], the pIC50 was 6.70 to 7.30.

The same assay, now with this note: numeric values, 6 h at 37° C.
`CN1Cc2sc(C(=O)c3cncnc3N[C@H]3C[C@H](O)[C@@H](COS(N)(=O)=O)[C@@H]3F)cc2[C@@]2(C1)NCCc1ccc(Cl)cc12` [Compound 577] had a pIC50 of less than 6.00.

Turning to `CC(C)N1Cc2sc(C(=O)c3cncnc3N[C@H]3C[C@H](O)[C@@H](COS(N)(=O)=O)[C@@H]3F)cc2[C@]2(C1)NCCc1ccc(Cl)cc12` [Compound 650], the pIC50 is 7.66.
